Source: patent US20050054702A1, “Method of controlling allergens” (Lonza Inc., priority 2003, published 2005)

Molecular target: T1, Der p 1 allergen (Dermatophagoides pteronyssinus, UniProt P08176)
T1 sequence (P08176 99-320): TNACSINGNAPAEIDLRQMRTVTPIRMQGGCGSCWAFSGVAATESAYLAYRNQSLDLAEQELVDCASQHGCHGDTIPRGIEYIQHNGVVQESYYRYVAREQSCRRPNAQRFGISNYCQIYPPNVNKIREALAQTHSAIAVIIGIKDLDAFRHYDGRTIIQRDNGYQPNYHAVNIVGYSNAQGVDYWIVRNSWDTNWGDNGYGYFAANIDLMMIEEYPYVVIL
Experiment: ELISA method for Der p 1 Allergen (level of allergen recovered after exposure to active)
Format: biochemical
Conditions: 10 min exposure to Ag, 62.5 ng/ml Ag in plate
Experimental: Several samples were tested using a standard Enzyme Linked Immunosorbent Assay, (ELISA). The ELISA method for Der p 1 Allergen was utilized. Der p 1 allergen is a standardized allergen. The ELISA method provides quantitative results correlating to the level of allergen recovered in the test.
In the ELISA method for Der p 1 Allergen, the coating antibody is Anti-Der p1 mAb 5H8, supplied as a HPLC purified stock solution at 2 mg/ml in phosphate buffered saline. The coating antibody was diluted in coating buffer (12 μl in 12 ml). 100 μl of the diluted coating antibody was dispensed in each well. The plate was held overnight at 4° C. Then the coating antibody was dumped from the plate and the plate was blotted dry. The well was washed 3 times with PBS-T and blotted dry. Next, 100 μl per well of blocking buffer (BSA PBS-T) was added and incubated for 30 minutes at room temperature. A standard curve (doubling dilutions between 250-0.5 ng/ml) was prepared. The experimental samples were prepared. “Controls” are actives exposed to the plate before addition of Ag. The exposure time was 1 hour. The Ag level used in the plate was 62.5 ng/ml as is for the Ag level in the active. “Samples” are Actives exposed to Ag before addition to the plate. Exposure time was 10 minutes before incubation in the plate for 1 hour. Actives were used in 1:1 ratio with 125 ng/ml Ag (yield 62.5 ng/ml Ag in test plate).
The plate was then washed, filled with standards, blanks, controls and samples and incubated for 1 hour. The detecting antibody was prepared. Next, the plate was washed and the detecting antibody was added to each well. The conjugate was prepared. The plate was washed and the conjugate was added. Just before washing the conjugate from the plate, H2O2 was added to the substrate solution. The plate was washed and the substrate was added. The plate was read when the absorbance of 250 ng/ml antigen standard (at 405 nm) reached 2.0-2.4.
The active levels in the table are listed in ppm and are diluted in half by antigen during testing.

[1] = diluent water, active 15,000 ppm (diluted in half by antigen during testing)
[2] = diluent water, active 10,000 ppm (diluted in half by antigen during testing)

CCCCCCCCCCCCN(CCCN)CCCN [N,N-bis(3-aminopropyl) dodecylamine]
% Reduction [1]: 99%
% Reduction (diluent water, active 50,000 ppm (diluted in half by antigen during testing)): 100%

O=C([O-])CN(CCN(CC(=O)[O-])CC(=O)[O-])CC(=O)[O-].[Na+].[Na+].[Na+].[Na+] [tetrasodium ethylene diamine tetraacetate]
% Reduction [1]: 91%

CC(O)C(=O)O (stereo not drawn) [lactic acid]
% Reduction (diluent water, active 3,500 ppm (diluted in half by antigen during testing)): 95%

O=C1O[C@H]([C@H](O)CO)C(O)=C1O [erythorbic acid]
% Reduction [2]: 96%

O=C(O)CC(O)(CC(=O)O)C(=O)O [citric acid]
% Reduction (diluent water, active 5,000 ppm (diluted in half by antigen during testing)): 100%

O=C1O[C@H]([C@@H](O)CO)C(O)=C1O [ascorbic acid]
% Reduction [2]: 91%

CC(=O)C1C(=O)C=C(C)OC1=O (stereo not drawn) [dehydroacetic acid]
% Reduction (diluent ethoxylated alcohol, active 2,500 ppm (diluted in half by antigen during testing)): 100%

O=C([O-])[O-].[Na+].[Na+] [sodium carbonate]
% Reduction (diluent water, active 2,500 ppm (diluted in half by antigen during testing)): 100%
